# Several values for one entry are separate records, joined by “and”; a condition that tells them apart may be missing. Equal entries are not always repeated. Entries after “also recorded” stand apart in the source; their conditions may differ. Structures can show the parent of a compound that is named as a salt.
# How the values were obtained:
# [1] = molecular target: T1, AChE (Homo sapiens, UniProt P22303); assay: AChE inhibition, Ellman assay; type: biochemical; set-up: AChE from human erythrocytes; purchased Sigma Aldrich; host or cells: human erythrocytes (natural source); conditions: for inhibition at 1 µM: read-out: (h)AChE % Inhibition at 10^−6 M; for AChE inhibitory activity: result in words
# T1 sequence (P22303 32-617 isoform P22303-2 limits assumed): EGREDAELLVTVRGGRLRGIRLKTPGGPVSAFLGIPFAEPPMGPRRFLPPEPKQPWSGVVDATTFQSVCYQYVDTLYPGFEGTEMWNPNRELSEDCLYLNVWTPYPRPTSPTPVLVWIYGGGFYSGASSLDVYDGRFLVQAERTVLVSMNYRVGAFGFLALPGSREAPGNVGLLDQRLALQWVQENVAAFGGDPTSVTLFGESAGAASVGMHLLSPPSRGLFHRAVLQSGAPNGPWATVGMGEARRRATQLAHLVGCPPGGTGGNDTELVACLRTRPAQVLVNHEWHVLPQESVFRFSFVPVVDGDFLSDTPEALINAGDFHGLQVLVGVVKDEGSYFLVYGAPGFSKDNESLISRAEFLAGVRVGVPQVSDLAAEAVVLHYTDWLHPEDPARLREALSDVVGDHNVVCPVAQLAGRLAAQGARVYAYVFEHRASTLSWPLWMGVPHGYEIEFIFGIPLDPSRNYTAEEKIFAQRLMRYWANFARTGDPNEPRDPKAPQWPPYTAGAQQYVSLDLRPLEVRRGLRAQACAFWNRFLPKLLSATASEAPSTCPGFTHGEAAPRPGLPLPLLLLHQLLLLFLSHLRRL
# Method: All the synthesized phenolic derivatives and their carbamates were evaluated as potential inhibitors of human AChE, using the Ellman assay, as well as potential ligands for human 5-HT4R using a radioligand displacement assay.
# The inhibitory capacity of compounds on AChE biological activity was evaluated through the use of the spectrometric method of Ellman. Acetylthiocholine iodide and 5,5-dithiobis-(2-nitrobenzoic) acid (DTNB) were purchased from Sigma Aldrich. AChE from human erythrocytes (buffered aqueous solution, ≥500 units/mg protein (BCA), Sigma Aldrich, St. Louis, MO, USA) was diluted in 20 mM HEPES buffer pH 8, 0.1% Triton X-100 such as to have enzyme solution with 0.25 unit/mL enzyme activity. In the procedure, 100 μL of 0.3 mM DTNB dissolved in a phosphate buffer with pH 7.4 were added into the 96-well plates followed by 50 μL of the test compound solution and 50 μL of enzyme (0.05 U final). After 5 min of preincubation at 25 °C, the reaction was then initiated by the injection of 50 μL of 10 mM acetylthiocholine iodide solution. […] Assays were performed with a blank containing all components except acetylthiocholine, in order to account for non-enzymatic reactions. The reaction slopes were compared and the percent inhibition due to the presence of test compounds was calculated by the following expression: 100 − (vi/v0 × 100), where vi is the rate calculated in the presence of inhibitor and v0 is the enzyme activity.
# [2] = molecular target: T1, AChE; assay: Kinetic study for AChE inhibition (Lineweaver-Burk plots); type: biochemical
# Method: To try to clarify the mechanism of action of 19 and 20, reciprocal plots of 1/velocity vs. 1/[substrate] were constructed at different concentrations of the substrate acetylthiocholine iodide (0.01–1 mM) by using the spectrometric method by Ellman et al.. Four concentrations of 19 were selected for the studies: 10^−6, 10^−7, 10^−8 and 10^−9 M for the kinetic analysis of AChE inhibition. Four concentrations of 20 were selected for the studies: 10^−5, 10^−6, 10^−7 and 10^−8 M for the kinetic analysis of AChE inhibition. The plots were assessed by a weighted least squares analysis that assumed the variance of velocity (ν) to be a constant percentage of ν for the entire dataset. Slopes of these reciprocal plots were then plotted against the concentration of 19 and 20 in a weighted analysis.
# [3] = molecular target: T2, (h)5-HT4(a) receptors (Homo sapiens, UniProt Q13639); assay: cAMP production in COS-7 cells transfected with 5-HT4R; type: cell-based
# T2 construct: HA; expressed in transfected cells; host or cells: COS-7
# T2 sequence (Q13639 1-387 isoform Q13639-2): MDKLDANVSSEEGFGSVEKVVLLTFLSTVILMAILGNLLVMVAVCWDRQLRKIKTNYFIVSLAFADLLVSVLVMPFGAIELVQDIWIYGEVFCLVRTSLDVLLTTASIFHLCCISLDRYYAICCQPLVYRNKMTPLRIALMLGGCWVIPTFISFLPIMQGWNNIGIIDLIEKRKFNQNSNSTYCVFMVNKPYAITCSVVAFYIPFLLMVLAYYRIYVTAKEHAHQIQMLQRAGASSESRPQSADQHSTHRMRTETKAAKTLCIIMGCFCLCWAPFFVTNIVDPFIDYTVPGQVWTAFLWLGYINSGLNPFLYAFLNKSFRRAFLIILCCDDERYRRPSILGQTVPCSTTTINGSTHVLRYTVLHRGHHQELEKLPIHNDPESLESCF
# Method: COS-7 cells were grown in Dulbecco’s modified Eagle medium (DMEM) supplemented with 10% dialyzed fetal calf serum (dFCS) and antibiotics. Cells were transiently transfected by electroporation with plasmids encoding HA-tagged 5-HT4R (100 ng/10^6 cells), then seeded in 96-well plates (16,000 cells/well). […] After 10 min, cells were then lysed by the addition of the same volume of Triton-X100 (0.1%). Quantification of cAMP production was performed by HTRF® using the cAMP Dynamic kit (Cisbio Bioassays, Codolet, France) according to the manufacturer’s instructions.
# [4] = molecular target: T3, human 5-HT4R (Homo sapiens, UniProt Q13639); assay: 5-HT4R radioligand displacement assay ([3H]-GR113808); type: binding; conditions: mean ± SEM of at least three experiments
# T3 construct: purchased Eurofins HTS110M
# T3 sequence (Q13639 whole entry): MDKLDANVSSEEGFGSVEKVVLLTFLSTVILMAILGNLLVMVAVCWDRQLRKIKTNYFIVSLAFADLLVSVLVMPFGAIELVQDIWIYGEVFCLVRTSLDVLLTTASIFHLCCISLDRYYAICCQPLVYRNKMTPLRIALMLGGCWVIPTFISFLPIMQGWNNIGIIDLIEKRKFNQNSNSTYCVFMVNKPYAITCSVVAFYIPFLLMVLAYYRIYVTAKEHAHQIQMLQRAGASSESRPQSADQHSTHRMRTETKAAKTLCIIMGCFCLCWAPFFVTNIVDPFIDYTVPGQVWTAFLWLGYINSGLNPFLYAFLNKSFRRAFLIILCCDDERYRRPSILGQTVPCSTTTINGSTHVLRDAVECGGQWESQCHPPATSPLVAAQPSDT
# [5] = molecular target: T3, human 5-HT4R; assay: as above; type: binding; conditions: for 5-HT4R affinity: result in words
# Method: All the synthesized phenolic derivatives and their carbamates were evaluated as potential inhibitors of human AChE, using the Ellman assay, as well as potential ligands for human 5-HT4R using a radioligand displacement assay. […].
# For competition studies, 2.5 µg of proteins (5-HT4(b) membrane preparations, HTS110M, Eurofins. Eurofins’ 5-HT4(b) membrane preparations are crude membrane preparations made from their proprietary stable recombinant cell lines to ensure high-level of GPCR surface expression.) were incubated in duplicate at 25 °C for 60 min in the absence or the presence of 10^−6 or 10^−8M of each drug (9 was used as a reference standard) and 0.2 nM [^3H]-GR113808 (NET 1152, Perkin Elmer) in 25 mM Tris buffer (pH 7.4, 25 °C). At the end of the incubation, homogenates were filtered through Whatman GF/C filters (Alpha Biotech) pre-soaked with 0.5% polyethylenimine using a Brandel cell harvester. Filters were subsequently washed three times with 1 mL of ice-cold 25 mM Tris buffer (pH 7.4, 4 °C). Non-specific binding was evaluated in parallel in the presence of 30 µM serotonin. For some of these compounds, affinity constants were calculated from five-point inhibition curves using the GraphPad Prism 6 software and expressed as Ki ± SD.
# [6] = test system: rodents; conditions: cited from earlier work
# [7] = test system: rodents; conditions: various tests; cited from earlier work
# [8] = test system: mice; assay: CNS-activity and acute toxicity test; conditions: mice, IP
# Method: Animals. Adult male NMRI mice (3 months old, weighing 35–40 g) from Janvier labs (Le Genest-Saint-Isle, France) were used to perform experiments. Mice were housed by ten in standard polycarbonate cages in standard controlled conditions (22 ± 2 °C, 55 ± 10% humidity) with a reversed 12 h light/dark cycle (light on at 7 pm). Food and water were available ad libitum in the home cage. All experiments were conducted (between 9 am and 3 pm) during the active–dark phase of the cycle and were in agreement with the European Directives and French law on animal experimentation (personal authorization n° 14–17 for MB and 14–60 for TF).
# CNS-activity and acute toxicity test. Behavioral and neurological changes induced by graded doses (1, 10, 100 mg/kg) of the tested derivatives were evaluated in mice, in groups of four, by a standardized observation technique at different times (30 min, 3 and 24 h) after intraperitoneal administration. […] The approximate DL50 of the compounds were also calculated through the quantification of mortality after 24 h. Amphetamine (2 mg/kg) and chlorpromazine (10 mg/kg) were used as the stimulant and depressive references, respectively.
# [9] = (h)AChE IC50, Ellman assay, mean ± SEM of at least two experiments
structure (smiles),measurement,setting,value
"COc1cc(N)c(Cl)cc1C(=O)CCC1CCN(Cc2cccc(O)c2)CC1.O=C(O)/C=C/C(=O)O [Compound 19, 1-(4-Amino-5-chloro-2-methoxyphenyl)-3-[1-[(3-hydroxyphenyl)methyl]-4-piperidyl]propan-1-one fumaric acid salt]",IC50,[1]; [9],72 ± 1.4 nM
same,mechanism of AChE inhibition,[2],non-competitive AChE inhibitor; also recorded: non-competitive-type
same,% Control Agonist Response,"[3]; 5-HT as control 5-HT4R agonist, mean ± SEM",59.0 ± 3.9%
same,Profile,[3]; (h)5-HT4(a) pharmacological profile,partial 5-HT4R agonist
same,EC50,"[3]; given as Log(EC50), negative values, mean ± SEM",0.126 nM
same,Ki,[4],6.9 ± 1.2 nM
"CCN(C)C(=O)Oc1cccc(CN2CCC(CCC(=O)c3cc(Cl)c(N)cc3OC)CC2)c1 [Compound 7, [3-[[4-[3-(4-Amino-5-chloro-2-methoxyphenyl)-3-oxopropyl]-1-piperidyl]methyl]phenyl] N-ethyl-N-methyl-carbamate]",(h)5-HT4R % Inhibition at 10^−8 M,[5]; 10^−8 M,3%
same,5-HT4R affinity,[5],devoid of any activity towards 5-HT4R
same,IC50,[1]; [9],4150 ± 794 nM
same,IC50,"[1]; AChE IC50, value in text",4150 nM
CCN(C)C(=O)Oc1cccc([C@H](C)N(C)C)c1 [Rivastigmine],effect on memory deficits induced by MK 801,[6],ineffective in improving memory deficits induced by MK 801
same,effect on scopolamine-induced memory performance deficit,[7],counterbalance scopolamine-induced memory performance deficit
"COc1cc(N)c(Cl)cc1C(=O)OCC1CCN(Cc2cccc(O)c2)CC1 [Compound 5, [1-[(3-Hydroxyphenyl)methyl]-4-piperidyl]methyl 4-amino-5-chloro-2-methoxybenzoate]",inhibition at 1 µM,[1],11%
same,AChE inhibitory activity,[1],devoid of any AChE inhibitory activities; also recorded: absent
same,Ki,[4],0.6 ± 0.4 nM
"CCN(C)C(=O)Oc1cccc(CN2CCC(CNC(=O)c3cc(Cl)c(N)cc3OC)CC2)c1 [Compound 9, [3-[[4-[[(4-Amino-5-chloro-2-methoxybenzoyl)amino]methyl]-1-piperidyl]methyl]phenyl] N-ethyl-N-methyl-carbamate]",inhibition at 0.01 µM,[5]; 10^−8 M,13%
same,5-HT4R affinity,[5],devoid of any activity towards 5-HT4R
same,IC50,[1]; [9],10100 nM
"CCN(C)C(=O)Oc1cccc(CN2CCC(COC(=O)c3cc(Cl)c(N)cc3OC)CC2)c1 [Compound 8, [1-[[3-[Ethyl(methyl)carbamoyl]oxyphenyl]methyl]-4-piperidyl]methyl 4-amino-5-chloro-2-methoxybenzoate]",inhibition at 0.01 µM,[5]; 10^−8 M,23%
same,5-HT4R affinity,[5],devoid of any activity towards 5-HT4R
same,IC50,[1]; [9],16300 nM
"C[C@H](N)Cc1ccccc1 [Amphetamine, (+)-α-Methylphenethylamine hemisulfate, reference compound]",Symptoms (Subtoxic Doses),"[8]; 2 mg/kg, stimulant reference","Hyperactivity, exophtalmy, irritability"
"CN(C)CCCN1c2ccccc2Sc2ccc(Cl)cc21 [Chlorpromazine, chlorpromazine hydrochloride, reference compound]",Symptoms (Subtoxic Doses),"[8]; 10 mg/kg, depressive reference","Hypoactivity, ataxia, sleep"
"COc1cc(N)c(Cl)cc1C(=O)NCC1CCN(Cc2cccc(O)c2)CC1 [Compound 6, 4-Amino-5-chloro-N-[[1-[(3-hydroxyphenyl)methyl]-4-piperidyl]methyl]-2-methoxybenzamide]",inhibition at 1 µM,[1],4%
same,AChE inhibitory activity,[1],devoid of any AChE inhibitory activities; also recorded: absent
same,Ki,[4],5.8 ± 1.2 nM
"COc1cc(N)c(Cl)cc1C(=O)CCC1CCN(Cc2cccc(O)c2)CC1 [Compound 4, 1-(4-Amino-5-chloro-2-methoxyphenyl)-3-[1-[(3-hydroxyphenyl)methyl]-4-piperidyl]propan-1-one]",IC50,[1]; [9],148 nM and 149 nM
same,Ki,[4],5.1 ± 1.1 nM

# — article PMC6696315, “Inhibiting Acetylcholinesterase to Activate Pleiotropic Prodrugs with Therapeutic Interest in Alzheimer’s Disease” (Molecules, 2019)
